Reference: patent publication US20250052744A1, “Dyes and Uses Thereof” (The University of Liverpool, priority 2021, published 2025)
Entries after “also recorded” stand apart in the source; their conditions may differ.

Experiments:
Pseudomonas aeruginosa = experiment: Qualitative dye staining on agarose pads (EVOS M7000); assay type: cell-based; set-up: key to Relative fluorescent intensity: Very high: If the cells looked twice as big in the fluorescent channel, it was marked as having “very high” relative fluorescent intensity; High: if the cells looked bigger in the fluorescent channel, it was marked as having “high” relative fluorescent intensity; Medium: If the cells looked almost the same size in the fluorescent channel and the bright field, it was marked as having “medium” relative fluorescent intensity; Low: If the cells looked smaller in the fluorescent channel as compared to the brightfield but still the whole cell was visible, it was marked as having “low” relative fluorescent intensity; Negligible: If only a few traces of a cell was visible in the fluorescent channel, it was marked as having “negligible” relative fluorescent intensity; settings: DiSC3(5) 3 μM, SYBR Green I 10×, SYTO 13 3 μM, FM4-64 15 μM
Procedure: (§1) An overnight culture was prepared by inoculating a bacterial colony in approximately 5 ml of Urine and incubating the culture in an orbital shaker at 37° C.
(§2) The following media and materials were utilised: Cation-adjusted Mueller Hinton broth (MHB); Phosphate Buffered Saline (PBS); Membrane staining dye—FM4-64 (1.5 mM); Live cell staining dye—DiSC3(5) (1 mM); DNA staining dye—SYBR Green (1000×); DNA staining dye—SYTO 13 (0.5 mM); Ultrapure Agarose; Parafilm; Glass slides and coverslips; Scalpel; and EVOS M7000 fluorescent microscope.
(§3) A pre-cut parafilm or a coverslip was used as a guide and 22 mm×22 mm squares cut from parafilm. A square was cut out of the centre of the parafilm (approximately 10 mm×10 mm). The centre of the cut-out was discarded. Two parafilm gaskets were placed onto a cleaned glass slide. The glass slide was then placed on a dry bath set to 56° C. so that the parafilm adhered to the glass slide. The glass slide was then kept on the dry bath. Using a microwave, ultrapure agarose was dissolved in PBS at a concentration of 1.2%. The agarose solution was kept on a dry bath set at 56° C. 60 μl of the agarose solution was pipetted in the centre of the parafilm gaskets. A coverslip was then placed over the gaskets without applying pressure on the coverslip. The slide was then placed on a cool surface and left to solidify for 1-2 minutes. The coverslips were then gently lifted off the agarose pads.
(§4) In a first Eppendorf, 15 μl of FM4-64 and 6 μl of SYTO 13 was added and in a second Eppendorf 10 μl of SYBR Green and 3 μl of DiSC3(5) was added. Depending on the bacterial growth in urine, an appropriate concentration of the bacterial culture was placed in the two Eppendorfs (final bacterial concentration 10^6 CFU/ml). MHB was added so as to achieve a final volume of 1 ml. Final concentrations of the dyes in the sample was as follows: DiSC3(5): 3 μM; SYBR Green I: 10× (originally supplied as 10,000×); SYTO 13: 3 μM; and FM4-64: 15 μM
(§5) 4 μl of the contents of each Eppendorf were deposited on one agarose pad and the cells distributed across the agar surface by tilting the slide. The slide was left to dry for approximately 1 minute. A coverslip was then placed on top of the agarose pad. The slide was placed inside the microscope and incubated at 37° C. for 10 minutes. Using different light filters for each dye, an image of each pad at 40× magnification on an EVOS M7000 fluorescent microscope was captured. Eight images for each agarose pad was recorded (i.e. 8 each for brightfield and 2 fluorescent channels). For each agarose pad, 24 images were recorded. This corresponded to 48 images in total for each bacterial strain (2 agarose pads per strain). Table A below was used to take the images using the correct fluorescent channel and intensity (for imagining on any other instrument, the LED intensity will need to be normalised against the EVOS M7000).
(§6) To qualitatively calculate the relative fluorescent intensities, cell size was compared between brightfield and the fluorescent channel for a given fluorescent dye. If the cells are very fluorescent, they will appear bigger in the fluorescent channel as compared to the bright field. For our qualitative measurements, if the cells looked bigger in the fluorescent channel, it was marked as having “high” relative fluorescent intensity. If the cells looked twice as big in the fluorescent channel, it was marked as having “very high” relative fluorescent intensity. If the cells looked almost the same size in the fluorescent channel and the bright field, it was marked as having “medium” relative fluorescent intensity. If the cells looked smaller in the fluorescent channel as compared to the brightfield but still the whole cell was visible, it was marked as having “low” relative fluorescent intensity. If only a few traces of a cell was visible in the fluorescent channel, it was marked as having “negligible” relative fluorescent intensity.

Enterococcus faecium = experiment: as above; assay type: cell-based; set-up: key to Relative fluorescent intensity: Very high: If the cells looked twice as big in the fluorescent channel, it was marked as having “very high” relative fluorescent intensity; High: if the cells looked bigger in the fluorescent channel, it was marked as having “high” relative fluorescent intensity; Medium: If the cells looked almost the same size in the fluorescent channel and the bright field, it was marked as having “medium” relative fluorescent intensity; Low: If the cells looked smaller in the fluorescent channel as compared to the brightfield but still the whole cell was visible, it was marked as having “low” relative fluorescent intensity; Negligible: If only a few traces of a cell was visible in the fluorescent channel, it was marked as having “negligible” relative fluorescent intensity; settings: DiSC3(5) 3 μM, SYBR Green I 10×, SYTO 13 3 μM, FM4-64 15 μM
Procedure: as §1, §2, §3, §4, §5, §6

[1] = Table 6 thresholds, Pseudomonas aeruginosa
[2] = Table 7 commercial strain Pseudomonas aeruginosa NCTC 10332
[3] = Table 7 commercial strain Pseudomonas aeruginosa NCTC 13715
[4] = Table 8 sample Pseudomonas aeruginosa (031)
[5] = Table 8 sample Pseudomonas aeruginosa (032)
[6] = Table 8 sample Pseudomonas aeruginosa (033)
[7] = Table 7 commercial strain Enterococcus faecium NCTC 7171
[8] = Table 7 commercial strain Enterococcus faecium NCTC 13923
[9] = Table 8 sample Enterococcus faecium (011)
[10] = Table 8 sample Enterococcus faecium (012)
[11] = Table 8 sample Enterococcus faecium (013)

Row | SMILES | Percentage of cells stained (Pseudomonas aeruginosa; [1]) | Relative fluorescent intensity (Pseudomonas aeruginosa; [1]) | Percentage of cells stained (Pseudomonas aeruginosa; [2]) | Relative fluorescent intensity (Pseudomonas aeruginosa; [2]) | Percentage of cells stained (Pseudomonas aeruginosa; [3]) | Relative fluorescent intensity (Pseudomonas aeruginosa; [3]) | Percentage of cells stained (Pseudomonas aeruginosa; [4]) | Relative fluorescent intensity (Pseudomonas aeruginosa; [4]) | Percentage of cells stained (Pseudomonas aeruginosa; [5]) | Relative fluorescent intensity (Pseudomonas aeruginosa; [5]) | Percentage of cells stained (Pseudomonas aeruginosa; [6]) | Relative fluorescent intensity (Pseudomonas aeruginosa; [6]) | Percentage of cells stained (Enterococcus faecium; [7]) | Relative fluorescent intensity (Enterococcus faecium; [7]) | Percentage of cells stained (Enterococcus faecium; [8]) | Relative fluorescent intensity (Enterococcus faecium; [8]) | Percentage of cells stained (Enterococcus faecium; [9]) | Relative fluorescent intensity (Enterococcus faecium; [9]) | Percentage of cells stained (Enterococcus faecium; [10]) | Relative fluorescent intensity (Enterococcus faecium; [10]) | other results
1 | CCCN1C(=CC=CC=Cc2sc3ccccc3[n+]2CCC)Sc2ccccc21.[I-] [DiSC3(5), 3,3′-Dipropylthiadicarbocyanine Iodide] | Few | no or negligible staining; also recorded: Negligible | Few | Negligible | Few | Negligible | Few | Negligible | Few | Negligible | Few | Negligible | Almost all | Low | Almost all | Low | Almost all | Low | Almost all | Low | Percentage of cells stained (Enterococcus faecium; [11]): Half; Relative fluorescent intensity (Enterococcus faecium; [11]): Low
2 | CCN(CC)c1ccc(C=CC=CC=Cc2cc[n+](CCC[N+](CC)(CC)CC)cc2)cc1.[Br-].[Br-] [FM 4-64, N-(3-Triethylammoniumpropyl)-4-(6-(4-(Diethylamino) Phenyl) Hexatrienyl) Pyridinium Dibromide] | Almost all | Low | Almost all | Negligible | Almost all | Low | Almost all | Low | Almost all | Low | Almost all | Low | Half | Medium | Half | Medium | Half | Medium | Half | Medium | Percentage of cells stained (Enterococcus faecium; [11]): Almost all; Relative fluorescent intensity (Enterococcus faecium; [11]): Medium
3 | CCCN(CCCN(C)C)c1cc(/C=C2/Sc3ccccc3N2C)c2ccccc2[n+]1-c1ccccc1 [SYBR Green I, N′,N′-dimethyl-N-[4-[(E)-(3-methyl-1,3-benzothiazol-2-ylidene)methyl]-1-phenylquinolin-1-ium-2-yl]-N-propylpropane-1,3-diamine] | Almost all | Low | Almost all | Low | Almost all | Low | Almost all | Low | Almost all | Low | Almost all | Low | Almost all | High | Almost all | High | Almost all | High | Almost all | High | Percentage of cells stained (Enterococcus faecium; [11]): Almost all; Relative fluorescent intensity (Enterococcus faecium; [11]): High
